According to US8193189B2, “Quinoxaline derivatives as tyrosine kinase activity inhibitors” (Novartis AG, priority 2007, dated 2012):

Experiments:
GST-JAK2(808-1132) = biological target: T1, GST-JAK2(808-1132) (Homo sapiens, UniProt O60674); test: EPK JAK-family kinases profiling assay (Caliper mobility shift), JAK2; format: biochemical; settings: ATP 20 μM, 1.8 nM kinase
T1 construct: GST-JAK2(808-1132); purchased Invitrogen (Carlsbad, USA) #4288
Source text: (§1) All four kinases of the JAK-family kinases were used as purified recombinant GST-fusion proteins, containing the active kinase domains. GST-JAK1(866-1154), GST-JAK3(811-1124), and GST-TYK2(888-1187) were expressed and purified by affinity chromatography at the EPK biology unit. GST-JAK2(808-1132) was purchased from Invitrogen (Carlsbad, USA, #4288).
(§2) The kinase assays were based on the Caliper mobility shift assay using the LabChip 3000 systems. This technology is similar to capillary electrophoresis and uses charge driven separation of substrate and product in a microfluidic chip.
(§3) All kinase reactions were performed in 384 well microtiter plates in a total reaction volume of 18 μl. The assay plates were prepared with 0.1 μl per well of test compound in the appropriate test concentration, as described under the section “preparation of compound dilutions”. The reactions were started by combining 9 μl of substrate mix (consisting of peptide and ATP) with 9 μl of kinase dilution. The reactions were incubated for 60 minutes at 30° C. and stopped by adding 70 μl of stop buffer (100 mM Hepes, 5% DMSO, 0.1% Coating reagent, 10 mM EDTA, 0.015% Brij 35).
(§4) Fluorescently labeled synthetic peptides were used as substrates in all reactions. […] Specific assay conditions are described in Table 1:
(§5) The terminated reactions were transferred to the Caliper LabChip 3000 reader and the turnover of each reaction was measured by determining the substrate/product ratio.
(§6) Test compounds were dissolved in DMSO (10 mM) and transferred into 1.4 mL flat bottom or V-shaped Matrix tubes carrying a unique 2D matrix chip by individual compound hubs. The numbers of these chips were distinctively linked to the individual compound identification numbers. The stock solutions were stored at −20° C. if not used immediately. For the test procedure the vials were defrosted and identified by a scanner whereby a working sheet was generated that guided the subsequent working steps.
(§7) Compound dilutions were made in 96 well plates. This format enabled the assay of maximally 40 individual test compounds at 8 concentrations (single points) including 4 reference compounds. The dilution protocol included the production of pre-dilution plates, master plates and assay plates:
(§8) Pre-dilution plates: 96 polypropylene well plates were used as pre-dilution plates. A total of 4 pre-dilution plates were prepared including 10 test compounds each on the plate positions A1-A10, one standard compound at A11 and one DMSO control at A12. All dilution steps were done on a HamiltonSTAR robot.
(§9) Master plates: 100 μL of individual compound dilutions including standard compound and controls of the 4 “pre-dilution plates” were transferred into a 384 “master plate” including the following concentrations 1′820, 564, 182, 54.6, 18.2, 5.46, 1.82 and 0.546 μM, respectively in 90% of DMSO.
(§10) Assay plates: Identical assay plates were then prepared by pipetting 100 nL each of compound dilutions of the master plates into 384-well “assay plates”. […] The preparation of the master plates were handled by the Matrix PlateMate Plus robot and replication of assay plates by the HummingBird robot.

GST-JAK3(811-1124) = biological target: T2, GST-JAK3(811-1124) (Homo sapiens, UniProt P52333); test: EPK JAK-family kinases profiling assay (Caliper mobility shift), JAK3; format: biochemical; settings: ATP 80 μM, 6 nM kinase
T2 construct: GST-JAK3(811-1124); made in house
T2 sequence (P52333 811-1124): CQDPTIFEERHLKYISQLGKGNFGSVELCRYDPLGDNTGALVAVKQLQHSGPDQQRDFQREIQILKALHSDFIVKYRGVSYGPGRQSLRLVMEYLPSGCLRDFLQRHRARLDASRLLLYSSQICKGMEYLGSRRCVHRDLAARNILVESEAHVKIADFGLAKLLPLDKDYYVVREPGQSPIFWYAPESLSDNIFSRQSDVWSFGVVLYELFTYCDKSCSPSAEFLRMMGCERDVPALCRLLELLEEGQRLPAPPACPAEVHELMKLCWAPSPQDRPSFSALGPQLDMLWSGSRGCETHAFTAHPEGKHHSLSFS
Source text: as §1, §2, §3, §4, §5, §6, §7, §8, §9, §10

[1] = system: JAK/STAT pathway (JAK1/JAK2-dependent nuclear translocation of STAT1-GFP); test: Inhibition of the JAK/STAT pathway: IFN-γ stimulated nuclear translocation of STAT1-GFP in HT1080 fibrosarcoma cells; format: cell-based; settings: Homo sapiens, HT-1080; HT1080 STAT1-GFP cells, 100 ng/ml IFN-γ 2 hours, compound added 30 min before; read-out: STAT1translo IC50
Source text: The medium-throughput (96-well format), robust and reproducible cellular assay can be routinely used to assess the functional activation of Janus Kinases (JAKs), based on the nuclear translocation of their substrate, Signal Transducer and Activator of Transcription (STAT). Nuclear translocation can be monitored in HT1080 fibrosarcoma cells stably transfected with STAT1 fused to Green Fluorescence Protein (GFP). Stimulation with interferon-γ (IFN-γ) results in JAK1/JAK2-dependent nuclear translocation of STAT1-GFP that can be quantified using the Cellomics Cyto/NucTrans software package. This assay may be used to provide an assessment of the nuclear-cytoplasmic differential (NCD) of GFP-STAT1 using Hoechst dye to define the boundaries of the nucleus.
Compounds can be dissolved in DMSO to a final stock concentration of 10 mM and stored as aliquots at 4° C. Compounds may be pre-diluted in 100% DMSO at 10 mM, 3 mM 1 mM, 0.3 mM, 0.1 mM, 0.03 mM, 0.01 mM and 0.003 mM. Subsequently, compounds may be diluted in medium and added in 50 μl to the cells. The final compound concentrations tested may be 10 μM, 3 μM 1 μM, 0.3 μM, 0.1 μM, 0.03 μM, 0.01 μM and 0.003 μM and the final DMSO concentration can be 0.1%.
The plates may then be washed once in PBS, and 200 μl PBS finally added per well. The plates, being finally covered with a black adhesive, may be either read directly or stored at 4° C. for later imaging. Where appropriate, the compounds may be added 30 min before stimulation with IFN-γ.
The plates can be read on a Cellomics® ArrayscanII automated fluorescence microscope plate reader equipped with a Mercury-Xenon white light illumination source and a Zeiss Axiovert inverted microscope, using the XF100 dichroic/emission filter cube and matching excitation filters, 10× magnification, and a 0.3 numerical aperture objective. Image acquisition and analysis can be performed using a customized protocol based on the ‘NuclearTranslocation’ Bioapplication (for details, see Appendices). For each well, multiple images (fields) can be acquired until a minimum of 1000 cells are counted using two 2 channels: Channel 1 (Hoechst)=focus+nuclear mask, Channel 2 (GFP)=signal quantification in mask areas as outlined below.
Nuclei may be first identified based on the Hoechst staining and a mask generated for each nucleus that then serves as a template to generate a circle (eroded inwards by 1 pixel) and a 3 pixel-wide collar-like ring (off-set outwards by 1 pixel), in which the nuclear and cytoplasmic intensity of GFP, respectively, are quantified in the corresponding channel. High content analysis yields numerous measurements per cell and the GPF intensity differential between the nuclear and the cytoplasmic masks may be chosen as a measure of sub-cellular GFP-STAT1 relocation. The resulting values may be averaged for all cells in the well to return a single measurement plus standard deviation.

GST-JAK1(866-1154) = biological target: T3, GST-JAK1(866-1154) (Homo sapiens, UniProt P23458); test: EPK JAK-family kinases profiling assay (Caliper mobility shift), JAK1; format: biochemical; settings: ATP 40 μM, 50 nM kinase
T3 construct: GST-JAK1(866-1154); made in house
T3 sequence (P23458 866-1154): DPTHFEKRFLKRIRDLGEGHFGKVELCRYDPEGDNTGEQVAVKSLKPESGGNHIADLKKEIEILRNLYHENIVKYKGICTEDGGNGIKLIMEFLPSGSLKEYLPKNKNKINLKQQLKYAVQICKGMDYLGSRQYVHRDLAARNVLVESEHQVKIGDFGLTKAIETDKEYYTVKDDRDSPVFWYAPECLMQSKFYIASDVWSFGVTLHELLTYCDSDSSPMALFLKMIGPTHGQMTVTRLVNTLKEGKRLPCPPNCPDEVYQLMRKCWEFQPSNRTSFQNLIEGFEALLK
Source text: as §1, §2, §3, §4, §5, §6, §7, §8, §9, §10

T1 sequence (O60674 808-1132): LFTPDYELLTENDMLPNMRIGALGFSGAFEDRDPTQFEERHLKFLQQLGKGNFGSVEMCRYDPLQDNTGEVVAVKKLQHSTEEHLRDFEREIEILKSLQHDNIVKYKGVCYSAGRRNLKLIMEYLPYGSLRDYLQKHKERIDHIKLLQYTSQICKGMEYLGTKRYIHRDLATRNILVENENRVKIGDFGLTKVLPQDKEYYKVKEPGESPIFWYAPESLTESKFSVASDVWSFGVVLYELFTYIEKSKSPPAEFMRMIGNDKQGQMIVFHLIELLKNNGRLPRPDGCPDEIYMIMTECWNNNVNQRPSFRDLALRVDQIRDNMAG

SMILES | IC50 (GST-JAK2(808-1132)) | IC50 (GST-JAK3(811-1124)) | IC50 [1] | IC50 (GST-JAK1(866-1154))
COc1cc(-c2cnc3cccc(-c4ccc(C(=O)N5CCOCC5)cc4F)c3n2)cc(OC)c1OC [Example 1, {3-Fluoro-4-[3-(3,4,5-trimethoxy-phenyl)-quinoxalin-5-yl]-phenyl}-morpholin-4-yl-methanone] | 82 nM | 4.4 µM |  | 
COc1cc(-c2cnc3cccc(-c4ccc(S(=O)(=O)C(C)C)cc4)c3n2)cc(OC)c1OC [Example 4, 8-[4-(Propane-2-sulfonyl)-phenyl]-2-(3,4,5-trimethoxy-phenyl)-quinoxaline] | 220 nM | > 10 µM |  | 
COc1cc(-c2cnc3cccc(-c4ccc(S(=O)(=O)N(C)C)cc4)c3n2)cc(OC)c1OC [Example 8, N,N-Dimethyl-4-[3-(3,4,5-trimethoxy-phenyl)-quinoxalin-5-yl]-benzenesulfonamide] | 110 nM | > 10 µM |  | 
COc1cc(-c2cnc3cccc(-c4ccc(C(=O)N5CCOCC5)c(C)c4)c3n2)cc(OC)c1OC [Example 16, {2-Methyl-4-[3-(3,4,5-trimethoxy-phenyl)-quinoxalin-5-yl]-phenyl}-morpholin-4-yl-methanone] | 19 nM |  |  | 
COc1ccc(-c2cnc3cccc(-c4ccc(S(C)(=O)=O)cc4)c3n2)cc1OC [Example 23, 2-(3,4-Dimethoxy-phenyl)-8-(4-methanesulfonyl-phenyl)-quinoxaline] | 200 nM | > 10 µM |  | 
CS(=O)(=O)Nc1cccc(-c2cnc3cccc(-c4ccc(CC(=O)N5CCOCC5)cc4)c3n2)c1 [Example 38, N-(3-{8-[4-(2-Morpholin-4-yl-2-oxo-ethyl)-phenyl]-quinoxalin-2-yl}-phenyl)-methanesulfonamide] | 23 nM | 4.2 µM |  | 
CCS(=O)(=O)c1ccc(-c2cccc3ncc(-c4cccc(NS(C)(=O)=O)c4)nc23)cc1 [Example 39, N-{3-[8-(4-Ethanesulfonyl-phenyl)-quinoxalin-2-yl]-phenyl}-methanesulfonamide] | 190 nM | > 10 µM |  | 
CCS(=O)(=O)c1ccc(-c2cccc3ncc(-c4ccc(OCCOC)c(OC)c4)nc23)cc1 [Example 47] | 38 nM | > 10 µM |  | 
CCS(=O)(=O)c1ccc(-c2cccc3ncc(-c4ccc(O)c(OC)c4)nc23)cc1 [Example 77, 4-[8-(4-Ethanesulfonyl-phenyl)-quinoxalin-2-yl]-2-methoxy-phenol] | 130 nM | 9.8 µM |  | 
COc1cc(-c2cnc3cc(C)cc(-c4ccc(C(=O)N5CCOCC5)cc4)c3n2)cc(OC)c1OC [Example 79, {4-[7-Methyl-3-(3,4,5-trimethoxy-phenyl)-quinoxalin-5-yl]-phenyl}-morpholin-4-yl-methanone] | 520 nM | > 10 µM |  | 

Next, values leading:

IC50 (GST-JAK2(808-1132)) | IC50 (GST-JAK3(811-1124)) | IC50 [1] | IC50 (GST-JAK1(866-1154)) | SMILES
120 nM | 5.4 µM |  |  | COc1cc(-c2cnc3cccc(-c4ccc(S(C)(=O)=O)cc4)c3n2)cc(OC)c1OC [Example 2, 8-(4-Methanesulfonyl-phenyl)-2-(3,4,5-trimethoxy-phenyl)-quinoxaline]
85 nM | 9.4 µM | 10.8 µM |  | CCS(=O)(=O)c1ccc(-c2cccc3ncc(-c4cc(OC)c(OC)c(OC)c4)nc23)cc1 [Example 3, 8-(4-Ethanesulfonyl-phenyl)-2-(3,4,5-trimethoxy-phenyl)-quinoxaline]
110 nM | > 10 µM |  |  | COc1cc(-c2cnc3cccc(-c4ccc(S(N)(=O)=O)cc4)c3n2)cc(OC)c1OC [Example 5, 4-[3-(3,4,5-Trimethoxy-phenyl)-quinoxalin-5-yl]-benzenesulfonamide]
95 nM | 8.42 µM |  |  | CCNS(=O)(=O)c1ccc(-c2cccc3ncc(-c4cc(OC)c(OC)c(OC)c4)nc23)cc1 [Example 7, N-Ethyl-4-[3-(3,4,5-trimethoxy-phenyl)-quinoxalin-5-yl]-benzenesulfonamide]
170 nM | > 10 µM |  |  | CNC(=O)c1ccc(-c2cccc3ncc(-c4cc(OC)c(OC)c(OC)c4)nc23)cc1 [Example 9, N-Methyl-4-[3-(3,4,5-trimethoxy-phenyl)-quinoxalin-5-yl]-benzamide]
9 nM |  |  | 39 nM | COc1cc(-c2cnc3cccc(-c4ccc(CC(=O)N5CCOCC5)cc4)c3n2)cc(OC)c1OC [Example 11, 1-Morpholin-4-yl-2-{4-[3-(3,4,5-trimethoxy-phenyl)-quinoxalin-5-yl]-phenyl}-ethanone]
52.5 nM | > 10 µM |  | 180 nM | COc1cc(-c2cnc3cccc(-c4ccc(NS(C)(=O)=O)cc4)c3n2)cc(OC)c1OC [Example 12, N-{4-[3-(3,4,5-Trimethoxy-phenyl)-quinoxalin-5-yl]-phenyl}-methanesulfonamide]
 | > 10 µM |  |  | COc1cc(-c2cnc3cccc(-c4ccc(CN5CCOCC5)cc4)c3n2)cc(OC)c1OC [Example 15, 8-(4-Morpholin-4-ylmethyl-phenyl)-2-(3,4,5-trimethoxy-phenyl)-quinoxaline]
 |  |  | 59 nM | COc1cc(-c2cnc3cccc(-c4ccc(CN5CCS(=O)(=O)CC5)cc4)c3n2)cc(OC)c1OC [Example 19, 8-[4-(1,1-Dioxido-thiomorpholin-4-ylmethyl)-phenyl]-2-(3,4,5-trimethoxy-phenyl)-quinoxaline]
24 nM |  |  | 160 nM | COc1cc(-c2cnc3cccc(-c4ccc(CN5CCOCC5)c(F)c4)c3n2)cc(OC)c1OC [Example 20, 8-(3-Fluoro-4-morpholin-4-ylmethyl-phenyl)-2-(3,4,5-trimethoxy-phenyl)-quinoxaline]
 |  |  | 1800 nM | COc1cc(-c2cnc3cccc(-c4ccc(CN5CCOCC5)c(C)c4)c3n2)cc(OC)c1OC [Example 21, 8-(3-Methyl-4-morpholin-4-ylmethyl-phenyl)-2-(3,4,5-trimethoxy-phenyl)-quinoxaline]
